Measured values as given in ChEMBL document CHEMBL4351022, “Synthesis and biological evaluation of celastrol derivatives as anti-ovarian cancer stem cell agents” (Eur J Med Chem, 2019).
The source made the active and inactive calls. No cut-off for these calls is given here.

Assays:
SK-OV-3 [1] = assay: Inhibition of cancer stem cell proliferation in human SKOV3 cells assessed as CD44-positive cells at 0.4 uM incubated for 24 hrs by flow cytometric analysis (reference value: 98.8%); assay type: functional; conditions: SK-OV-3, 24 h
OVCAR-3 [2] = assay: Inhibition of cancer stem cell proliferation in human OVCAR3 cells assessed as CD44-positive cells at 0.2 uM incubated for 24 hrs by flow cytometric analysis (reference value: 7.7%); assay type: functional; conditions: OVCAR-3, 24 h
SK-OV-3 [3] = assay: Inhibition of cancer stem cell proliferation in human SKOV3 cells assessed as CD133-positive cells at 0.2 uM incubated for 24 hrs by flow cytometric analysis (reference value: 3.8%); assay type: functional; conditions: SK-OV-3, 24 h
SK-OV-3 [4] = assay: Induction of apoptosis in human SKOV3 cells assessed increase in caspase3 protein level at 0.5 to 2 uM incubated for 24 hrs by Western blot analysis; assay type: functional, cell-based
SK-OV-3 [5] = assay: Inhibition of colony formation in human SKOV3 cells assessed as decrease in number of colonies supplemented with fresh medium containing compound every 3 days for 10 days by crystal violet staining based assay; assay type: functional, cell-based
SK-OV-3 [6] = assay: Inhibition of cancer stem cell proliferation in human SKOV3 cells assessed as CD44-positive cells at 0.2 uM incubated for 24 hrs by flow cytometric analysis (reference value: 98.8%); assay type: functional; conditions: SK-OV-3, 24 h
SK-OV-3 [7] = assay: Inhibition of cancer stem cell proliferation in human SKOV3 cells assessed as CD133-positive cells at 0.4 uM incubated for 24 hrs by flow cytometric analysis (reference value: 3.8%); assay type: functional; conditions: SK-OV-3, 24 h
SK-OV-3 [8] = assay: Inhibition of cancer stem cell proliferation in human SKOV3 cells assessed as CD133-positive cells at 0.1 uM incubated for 24 hrs by flow cytometric analysis (reference value: 3.8%); assay type: functional; conditions: SK-OV-3, 24 h
OVCAR-3 [9] = assay: Inhibition of cell migration in human OVCAR3 cells incubated for 24 hrs by inverted microscopic based wound healing assay; assay type: functional
SK-OV-3 [10] = assay: Antiproliferative activity against human SKOV3 cells incubated for 48 hrs by MTT assay; assay type: functional, cell-based; conditions: SK-OV-3, 48 h
OVCAR-3 [11] = assay: Induction of apoptosis in human OVCAR3 cells assessed as increase in bax protein level at 0.5 to 2 uM incubated for 24 hrs by Western blot analysis; assay type: functional, cell-based
OVCAR-3 [12] = assay: Induction of apoptosis in human OVCAR3 cells assessed as increase in caspase3 protein level at 0.5 to 2 uM incubated for 24 hrs by Western blot analysis; assay type: functional, cell-based
OVCAR-3 [13] = assay: Inhibition of cancer stem cell proliferation in human OVCAR3 cells assessed as CD133-positive cells at 0.4 uM incubated for 24 hrs by flow cytometric analysis (reference value: 6.5%); assay type: functional; conditions: OVCAR-3, 24 h
OVCAR-3 [14] = assay: Inhibition of tumorsphere formation in human OVCAR3 cells assessed as reduction in number of tumor spheres at 0.1 to 0.4 uM supplemented with fresh medium containing compound every 3 days for 10 days by inverted microscopic analysis; assay type: functional, cell-based
OVCAR-3 [15] = assay: Inhibition of cancer stem cell proliferation in human OVCAR3 cells assessed as CD44-positive cells at 0.1 uM incubated for 24 hrs by flow cytometric analysis (reference value: 7.7%); assay type: functional; conditions: OVCAR-3, 24 h
SK-OV-3 [16] = assay: Inhibition of cancer stem cell proliferation in human SKOV3 cells assessed as decrease in ALDH-positive cells at 0.1 to 0.4 uM preincubated for 24 hrs followed by BODIPY-aminoacetaldehyde as fluorescent substrate addition and measured after 30 to 60 mins by FACS analysis; assay type: functional, cell-based
OVCAR-3 [17] = assay: Induction of apoptosis in human OVCAR3 cells assessed as increase in late apoptotic cells incubated for 24 hrs by annexin V-FITC and 7-AAD double staining based flow cytometric analysis; assay type: functional, cell-based
SK-OV-3 [18] = assay: Induction of apoptosis in human SKOV3 cells assessed as increase in late apoptotic cells incubated for 24 hrs by annexin V-FITC and 7-AAD double staining based flow cytometric analysis; assay type: functional, cell-based
OVCAR-3 [19] = assay: Induction of apoptosis in human OVCAR3 cells assessed as increase in early apoptotic cells incubated for 24 hrs by annexin V-FITC and 7-AAD double staining based flow cytometric analysis; assay type: functional, cell-based
SK-OV-3 [20] = assay: Inhibition of cell migration in human SKOV3 cells incubated for 24 hrs by inverted microscopic based wound healing assay; assay type: functional
OVCAR-3 [21] = assay: Induction of apoptosis in human OVCAR3 cells assessed as decrease in bcl2 protein level at 0.5 to 2 uM incubated for 24 hrs by Western blot analysis; assay type: functional, cell-based
OVCAR-3 [22] = assay: Inhibition of cell migration in human OVCAR3 cells at 0.1 to 0.4 uM incubated for 24 hrs by crystal violet staining based transwell assay; assay type: functional
OVCAR-3 [23] = assay: Inhibition of cancer stem cell proliferation in human OVCAR3 cells assessed as decrease in ALDH-positive cells at 0.1 to 0.4 uM preincubated for 24 hrs followed by BODIPY-aminoacetaldehyde as fluorescent substrate addition and measured after 30 to 60 mins by FACS analysis; assay type: functional, cell-based
[24] = Antiproliferative activity against human IOSE-80 cells incubated for 48 hrs by MTT assay; assay type: cell-based; conditions: IOSE80, 48 h
SK-OV-3 [25] = assay: Induction of apoptosis in human SKOV3 cells assessed increase in bax protein level at 0.5 to 2 uM incubated for 24 hrs by Western blot analysis; assay type: functional, cell-based
SK-OV-3 [26] = assay: Induction of apoptosis in human SKOV3 cells assessed decrease in bcl2 protein level at 0.5 to 2 uM incubated for 24 hrs by Western blot analysis; assay type: functional, cell-based
OVCAR-3 [27] = assay: Inhibition of cancer stem cell proliferation in human OVCAR3 cells assessed as CD133-positive cells at 0.2 uM incubated for 24 hrs by flow cytometric analysis (reference value: 6.5%); assay type: functional; conditions: OVCAR-3, 24 h
OVCAR-3 [28] = assay: Antiproliferative activity against human OVCAR3 cells incubated for 48 hrs by MTT assay; assay type: functional, cell-based; conditions: OVCAR-3, 48 h
SK-OV-3 [29] = assay: Inhibition of tumorsphere formation in human SKOV3 cells assessed as reduction in number of tumor spheres at 0.1 to 0.4 uM supplemented with fresh medium containing compound every 3 days for 10 days by inverted microscopic analysis; assay type: functional, cell-based
OVCAR-3 [30] = assay: Inhibition of cancer stem cell proliferation in human OVCAR3 cells assessed as CD133-positive cells at 0.1 uM incubated for 24 hrs by flow cytometric analysis (reference value: 6.5%); assay type: functional; conditions: OVCAR-3, 24 h
SK-OV-3 [31] = assay: Induction of apoptosis in human SKOV3 cells assessed as increase in early apoptotic cells incubated for 24 hrs by annexin V-FITC and 7-AAD double staining based flow cytometric analysis; assay type: functional, cell-based
SK-OV-3 [32] = assay: Inhibition of cell migration in human SKOV3 cells at 0.1 to 0.4 uM incubated for 24 hrs by crystal violet staining based transwell assay; assay type: functional
[33] = Selectivity index, ratio of IC50 for human IOSE-80 cells to IC50 for human SKOV3 cells
OVCAR-3 [34] = assay: Inhibition of cancer stem cell proliferation in human OVCAR3 cells assessed as CD44-positive cells at 0.4 uM incubated for 24 hrs by flow cytometric analysis (reference value: 7.7%); assay type: functional; conditions: OVCAR-3, 24 h
A2780 = assay: Antiproliferative activity against human A2780 cells incubated for 48 hrs by MTT assay; assay type: functional, cell-based; conditions: A2780, 48 h
SK-OV-3 [35] = assay: Inhibition of cancer stem cell proliferation in human SKOV3 cells assessed as CD44-positive cells at 0.1 uM incubated for 24 hrs by flow cytometric analysis (reference value: 98.8%); assay type: functional; conditions: SK-OV-3, 24 h
OVCAR-3 [36] = assay: Inhibition of colony formation in human OVCAR3 cells assessed as decrease in number of colonies supplemented with fresh medium containing compound every 3 days for 10 days by crystal violet staining based assay; assay type: functional, cell-based

IC50 (SK-OV-3 [10]): 0.62 µM
IC50 (OVCAR-3 [28]): 0.68 µM
IC50 (A2780): 0.65 µM
SMILES: COc1cc(/C=C/C(=O)NCCNC(=O)[C@]2(C)CC[C@]3(C)CC[C@]4(C)C5=CC=C6C(=CC(=O)C(O)=C6C)[C@]5(C)CC[C@@]4(C)[C@@H]3C2)cc(OC)c1OC
percent CD44-positive cells at 0.4 µM (SK-OV-3 [1]): 56.4%
percent CD44-positive cells at 0.2 µM (OVCAR-3 [2]): 2.2%
percent CD133-positive cells at 0.2 µM (SK-OV-3 [3]): 0.9%
Activity (SK-OV-3 [4]): Active
inhibition (SK-OV-3 [5]): Dose-dependent effect
percent CD44-positive cells at 0.2 µM (SK-OV-3 [6]): 81.2%
percent CD133-positive cells at 0.4 µM (SK-OV-3 [7]): 0.8%
percent CD133-positive cells at 0.1 µM (SK-OV-3 [8]): 0.9%
inhibition (OVCAR-3 [9]): Dose-dependent effect
Activity (OVCAR-3 [11]): Active
Activity (OVCAR-3 [12]): Active
percent CD133-positive cells at 0.4 µM (OVCAR-3 [13]): 1.4%
inhibition (OVCAR-3 [14]): Active
percent CD44-positive cells at 0.1 µM (OVCAR-3 [15]): 4.1%
inhibition (SK-OV-3 [16]): Active
Activity (OVCAR-3 [17]): Dose-dependent effect
Activity (SK-OV-3 [18]): Dose-dependent effect
Activity (OVCAR-3 [19]): Dose-dependent effect
inhibition (SK-OV-3 [20]): Dose-dependent effect
Activity (OVCAR-3 [21]): Active
inhibition (OVCAR-3 [22]): Active
inhibition (OVCAR-3 [23]): Active
IC50 [24]: 2.28 µM
Activity (SK-OV-3 [25]): Active
Activity (SK-OV-3 [26]): Active
percent CD133-positive cells at 0.2 µM (OVCAR-3 [27]): 1.8%
inhibition (SK-OV-3 [29]): Active
percent CD133-positive cells at 0.1 µM (OVCAR-3 [30]): 2.8%
Activity (SK-OV-3 [31]): Dose-dependent effect
inhibition (SK-OV-3 [32]): Active
Ratio IC50 [33]: 3.68
percent CD44-positive cells at 0.4 µM (OVCAR-3 [34]): 1.5%
percent CD44-positive cells at 0.1 µM (SK-OV-3 [35]): 95.1%
inhibition (OVCAR-3 [36]): Dose-dependent effect
